# Assay results: US6541463B1, “Inhibitors of type 5 and type 3 17β-hydroxysteroid dehydrogenase and methods for their use” (Endorecherche, Inc., priority 1998, dated 2003)
# pIC50: −log10 of the molar value. Read-outs that look alike come from different tables or passages of the source.
# Tests used:
# [1] = biological target: T1, human type 5 17β-hydroxysteroid dehydrogenase (Homo sapiens, UniProt P42330); test: Reversibility of human type 5 17β-HSD inhibitory activity (preincubation, wash); assay type: cell-based
# T1 construct: screen again a human placental λgt11 cDNA to get the full length cDNA clone; expressed in transfected cells; host or cells: human embryonal kidney 293 cells (pCMV / pCMV-neo vector)
# T1 sequence (P42330 1-323): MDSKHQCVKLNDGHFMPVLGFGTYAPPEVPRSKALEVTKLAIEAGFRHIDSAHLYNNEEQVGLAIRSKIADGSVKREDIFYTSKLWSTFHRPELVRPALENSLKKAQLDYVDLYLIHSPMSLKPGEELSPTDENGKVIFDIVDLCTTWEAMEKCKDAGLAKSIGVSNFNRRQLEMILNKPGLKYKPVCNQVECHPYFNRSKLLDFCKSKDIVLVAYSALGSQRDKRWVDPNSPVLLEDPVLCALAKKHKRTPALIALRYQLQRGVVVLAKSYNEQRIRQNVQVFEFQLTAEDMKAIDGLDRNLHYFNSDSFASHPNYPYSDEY
# Experimental: In column 3, the reversibility of the inhibition of type 5 17β-hydroxysteroid dehydrogenase activity expressed in percentage of control is reported. The manner in which the reversibility is determined is described in “Efficacy of Preferred Inhibitors: V. Reversibility of Human Type 5 17β-HSD Inhibitory Activity”. Lower number is desirable. Blank means that a determination was not done.
# Determination of activity was performed as described (Luu-The et al., Mol. Endocrionol. 4: 268-275, 1990, Lachance et al., J. Biol. Chem. 265: 20469-20475, 1990; Luu-The et al., DNA & Cell Biol. 14: 511-518, 1995). Briefly, 0.1 μM of the indicated ^14C-labeled substrate (Dupont Inc. (Canada), namely, DHEA, 4-androstene-3,17-dione (Δ4), in absence or presence of increasing concentration of preferred inhibitor of the invention, was added to freshly changed culture medium in a 6-well culture plate. After incubation for 1 h, the steroids were extracted twice with 2 ml of ether. The organic phase were pooled and evaporated to dryness. The steroids were solubilized in 50 μl of dichloromethane, applied to Silica gel 60 thin layer chromatography (TLC) plate (Merck, Darmstad, Germany) then separated by migration in the toluene-acetone (4:1) solvent system. […] Transfection could be also performed with HeLa, SW-13, 293, COS-1 cells, the preferred cell line is 293 cells.
# The reversibility assay was performed as described above for the standard type 5 17β-HSD enzymatic assay, except that before adding the ^14C-labeled substrate, the cells were preincubated with 0.3 μM of the indicated inhibitor for 1 h, (or the indicated time interval), followed by two washes with phosphate saline buffer (PBS).
# [2] = biological target: T2, human type 1 17β-hydroxysteroid dehydrogenase (Homo sapiens, UniProt P14061); test: Enzymatic assay for type 1 17β-HSD; assay type: biochemical; conditions: for pIC50: Table 4′, read-out: Inhibition Type 1 17β-HSD Activity IC50; for inhibition at 3 µM / Inhibition Type 1 17B-HSD Activity [% Inh. at 3 · 10^−6 M]: 3 · 10^−6 M, value in square brackets; for inhibition at 3 µM: read-out: Inhibition Type 1 17B-HSD Activity [% Inh. at 3 · 10^−6 M]
# T2 construct: expressed in transfected cells; host or cells: 293 cells, transient transfection; 100 000×g supernatant (cytosol)
# T2 sequence (P14061 1-328): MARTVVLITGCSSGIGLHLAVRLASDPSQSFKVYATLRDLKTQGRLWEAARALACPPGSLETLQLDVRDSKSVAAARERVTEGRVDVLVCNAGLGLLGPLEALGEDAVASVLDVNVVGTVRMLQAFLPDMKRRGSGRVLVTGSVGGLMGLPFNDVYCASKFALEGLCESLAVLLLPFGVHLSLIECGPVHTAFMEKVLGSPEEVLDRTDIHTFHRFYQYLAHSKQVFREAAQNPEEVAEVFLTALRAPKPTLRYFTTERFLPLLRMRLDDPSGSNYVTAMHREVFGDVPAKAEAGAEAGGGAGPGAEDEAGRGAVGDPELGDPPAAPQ
# Experimental: The manner in which IC50 was determined is described in “Efficacy of Preferred Inhibitors: VI. Enzymatic assay for types 1, 2, and 3 17β-HSD and types 1 and 3 3α-HSD”. […] numbers of IC50 are desirable. Blank means that a determination was not done. The % of inhibition at the concentration of 3.10^−6M determined in preliminary screening test is reported in square braquets.
# Enzyme sources. 293 cells transiently transfected with expression vectors encoding types 1, 2 and 3 17β-HSD (Luu-The et al., J. Steroid Biochem. Molec. Biol., 55: 581-587, 1995), types 1 and 2 5α-reductase (Luu-The et al., J. Invest. Dermatol., 102: 221-226, 1994) and types 1 and 3 3α-HSD (Dufort et al. Biochem. Biophys. Res. Commun. 228: 474-479, 1996), using the calcium phosphate procedure (Kingston et al., In: Current Protocols in Molecular Biology. Edited by E. M. Ausbel, R. Brent, R. E. Kingston, D. D. Moore, J. G. Seidman, J. A. Smith, K. Struhl. John Wiley & Sons, New York, pp. 9.1.1-9.1.9, 1991; Luu-The et al., J. Invest. Dermatol., 102: 221-226, 1994). For assays using cell subfractions, cells were sonicated in 50 mM sodium phosphate buffer (pH 7.4), containing 20% glycerol and 1 mM EDTA and centrifuged at 10 000×g for 30 min before centrifugation for 100 000×g for 1 h to separate the mitochondrial and microsomal fractions, respectively. The cytosol fractions (100 000×g supernatant) was used to determine type 1 activity while the microsomal fraction (pellet at 100 000×g) was used for measurement of types 2 and 3 17β-HSD activities.
# Incubation. The enzymatic reaction was carried out at 37° C. in 1 ml of 50 mM sodium phosphate buffer, pH 7.4, containing 20% glycerol, 1 mM EDTA, and 2 mM cofactors (NADPH or AND^+) for 1 h in the presence of 0.1 μM ^14C-labeled substrate: estrone and 4-dione for types 1 and […] 17β-HSD, respectively, testosterone for type 2 17β-HSD as well as types 1 and 2 5α-reductases, DHT for types 1 and 3 3α-HSD activities, and the indicated concentration of inhibitor.
# Extraction of metabolites, migration on TLC and quantification were as described above for the assay of type 5 17β-HSD.
SMILES,Reversibility ((%) of control) ([1]; Table 4′),also measured
COc1ccc(CC(=O)O[C@]2(C(C)=O)CCC3C4C=C(C)C5=CC(=O)C=C[C@]5(C)C4CC[C@@]32C)cc1 (stereo partly drawn) [EM-1291],–,Reversibility ((%) of control) [1]: 27%
COCCOc1cc2c(cc1Cl)C1CCC3(C)C(CCC34CCC(C)(C)C(=O)O4)C1CC2 (stereo not drawn) [EM-1371-CS],40 % of control,–
COc1cc2c(cc1C)C1CCC3(C)C(CCC34CCC(C)(C)C(=O)O4)C1CC2 (stereo not drawn) [EM-1412-CS],71 % of control,–
CC1(C)CCC2(CCC3C4CCc5cc(OS(C)(=O)=O)ccc5C4CCC32C)OC1=O (stereo not drawn) [EM-1365-CS],49 % of control,pIC50 [2]: < 5.00
COc1c(Br)cc2c(c1Br)CCC1C2CCC2(C)C1CCC21CCC(C)(C)C(=O)O1 (stereo not drawn) [EM-1385-CS],60 % of control,–
CCCC(=O)O[C@]1(C)C(=O)CCC2C3C=C(C)C4=CC(=O)CC[C@]4(C)C3CC[C@@]21C (stereo partly drawn) [EM-1078],–,inhibition at 3 µM [2]: 15%
CC1(C)CCC2(CCC3C4CCc5c(cc(Cl)c(OS(C)(=O)=O)c5Cl)C4CCC32C)OC1=O (stereo not drawn) [EM-1392-CS],38 % of control,–
CC1(C)CC[C@@]2(CCC3C4CCc5cc(F)ccc5C4CC[C@@]32C)OC1=O (stereo partly drawn) [EM-1157-CS],28 % of control,pIC50 [2]: < 5.00
CC12C=CC(=O)C=C1C=CC1C2CCC2(C)C(=O)C3(CCCCC3)CC12 (stereo not drawn) [CS-204],–,inhibition at 3 µM [2]: 23%
"CC1(C)CC[C@@]2(CCC3C4CCc5cc(C(=O)O)ccc5C4CC[C@@]32C)OC1=O (stereo partly drawn) [EM-1401, 3-Carboxy-1,3,5(10)-estratrien-17(R)-spiro-2′-(5′,5′-dimethyl-6′-oxo)tetrahydropyran]",31 % of control,pIC50 [2]: < 5.00
CC1(C)CC[C@@]2(CCC3C4CCc5cc(C(N)=O)ccc5C4CCC32C)OC1=O (stereo partly drawn) [EM-1404],–,pIC50 [2]: < 5.00
COCCOc1cc2c(cc1C#N)C1CC[C@@]3(C)C(CC[C@@]34CCC(C)(C)C(=O)O4)C1CC2 (stereo partly drawn) [EM-1396],28 % of control,pIC50 [2]: < 5.00
"C[C@]12CCC(=O)C=C1C=C[C@@H]1[C@@H]2CC[C@]2(C)C(=O)C3(CC4CC4C3)C[C@@H]12 (stereo partly drawn) [EM-1299, 4,6-Androstadien-3,17-dione-16-spirobicyclo[3′.1′.0′]-hexane]",–,Inhibition Type 1 17B-HSD Activity [% Inh. at 3 · 10^−6 M] [2]: [49] %
"CC1(C)CCC2(CCC3C4CCc5cc(OCCN6CCCCC6)ccc5C4CCC32C)OC1=O [EM-1390-CS, 3-(N-piperidyl-ethyl)-1,3,5(10)-estratrien-17(R)-spiro-2′-(5′,5′-dimethyl-6′-oxo)-tetrahydropyran]",50 % of control,–
CCC[C@@H]1CC2C3C=CC4=CC(=O)CC[C@]4(C)C3CC[C@]2(C)C1=O (stereo partly drawn) [EM-1097],–,Reversibility ((%) of control) [1]: 45%; inhibition at 3 µM [2]: 64%
COc1ccc2c(c1)C(=O)CC1C3CCC4(CCC(C)(C)C(=O)O4)C3(C)CCC21O (stereo not drawn) [EM-1386],54 % of control,–
CC(C)C[C@@H]1CC2C3C=CC4=CC(=O)CC[C@]4(C)C3CC[C@]2(C)C1=O (stereo partly drawn) [EM-1273-CS],–,Reversibility ((%) of control) [1]: 40%; inhibition at 3 µM [2]: 31%
"COCCOc1cc2c(cc1C(N)=O)C1CC[C@@]3(C)C(CC[C@@]34CCC(C)(C)C(=O)O4)C1CC2 (stereo partly drawn) [EM-1424, 2-Carbamoyl-3-(2″-methoxyethyloxy)-1,3,5(10)-estratrien 17(R)-spiro-2′-(5′,5′-dimethyl-6′-oxo)tetrahydropyran]",17 % of control,pIC50 [2]: < 5.00
COCCOc1cc2c(cc1C(=O)N(C)C)C1CCC3(C)C(CCC34CCC(C)(C)C(=O)O4)C1CC2 (stereo not drawn) [EM-1413-CS],37 % of control,–
"COCCOc1cc2c(cc1C(=O)OC)C1CC[C@@]3(C)C(CC[C@@]34CCC(C)(C)C(=O)O4)C1CC2 (stereo partly drawn) [EM-1402-CS, 2-Carbomethoxy-3-(2″-methoxyethyloxy)-1,3,5(10)-estratrien 17(R)-spiro-2′-(5′,5′-dimethyl-6′-oxo)tetrahydropyran]",25 % of control,pIC50 [2]: < 5.00
COc1ccc2c(c1)C(=O)CC1C2CC[C@@]2(C)C1CC[C@@]21CCC(C)(C)C(=O)O1 (stereo partly drawn) [EM-1394],23 % of control,pIC50 [2]: < 5.00
"COCCOc1cc2c(cc1C(=O)O)C1CCC3(C)C(CCC34CCC(C)(C)C(=O)O4)C1CC2 [EM-1405, 2-Carboxy-3-(2″-methoxyethyloxy)-1,3,5(10)-estratrien-17(R)-spiro-2′-(5′,5′-dimethyl-6′-oxo)tetrahydropyran]",53 % of control,–
CCC[C@]1(F)CC2C3C=CC4=CC(=O)CC[C@]4(C)C3CC[C@]2(C)C1=O (stereo partly drawn) [EM-1183],–,inhibition at 3 µM [2]: 34%
CN(C)CCOc1ccc2c(c1)CCC1C2CCC2(C)C1CCC21CCC(C)(C)C(=O)O1 (stereo not drawn) [EM-1389-CS],40 % of control,–
CC1(C)CCC2(CCC3C4CCc5c(cc(Cl)c(O)c5Cl)C4CCC32C)OC1=O (stereo not drawn) [EM-1391-CS],49 % of control,–
COCCOc1cc2c(cc1F)C1CCC3(C)C(CCC34CCC(C)(C)C(=O)O4)C1CC2 (stereo not drawn) [EM-1393-CS],38 % of control,–
CC1=C[C@@H]2[C@H](CC[C@]3(C)C(=O)C4(CCCCC4)C[C@@H]23)[C@@]2(C)CCC(=O)C=C12 [EM-925],–,Inhibition Type 1 17B-HSD Activity [% Inh. at 3 · 10^−6 M] [2]: [13] %
